For orientation: pIC50 means −log10 of the IC50, conventionally taken in molar units. As usually defined, the IC50 is the midpoint of a concentration-inhibition curve.

pIC50: −log10 of the molar value. A value given as a limit tells only on which side of the number the result lay.

Data on 15 molecules can be found in patent US20060063784A1, “Method of using substituted pyrazolo [1,5-a] pyrimidines” (priority 2004, published 2006).

The first assay concerns 80S14 (p21-deficient) cells. Nature of the assay: Cytotoxicity assay using isogenic cell lines: IC50 in 80S14 (p21-deficient) cells, SRB. Format: cell-based, human. To be noted: 80S14 (p21-deficient) cells, 5 days, SRB; class symbols; read-out: IC50 for 80S14. The method, then:
Cytotoxicity Assay Using Isogenic Cell Lines: • 1. 80S14 (p21-deficient) cells were cultured in RPMI 1640 medium (Gibco/Invitrogen Life technologies) supplemented with 10% fetal bovine serum (FBS, Gibco) and 10 μg/ml gentamycin (Gibco). Cells were maintained at 37° C. under 7% CO2 • 2. Cells were plated at 6×10^4/ml (0.2 ml/well; 12,000 cells/well) in 96-well microtiter plates (Falcon or Corning/Costar) and incubated at 37° C. overnight (18-24 hours). • 3. 2-5 μl of the test agent [200 μg/ml stock in 20% DMSO/20 mM HEPES, pH 7.5 (Gibco)] was added to each well to achieve a final concentration of 2-5 μg/ml. Cells were incubated with the test compounds for 5 days at 37° C. • 4. Surviving cells were fixed with 50 μl 50% trichloroacetic acid (Sigma; 10% final concentration) for 1 hour at 4° C. • 5. Plates were rinsed twice with water (0.3 ml per wash using MRD8 robot), and allowed to dry. • 6. Sulforhodamine B (SRB) (Sigma; 0.4% in 1% acetic acid, 50 μl per well; MRD8 robot) was added and plates kept at room temperature for 10 minutes. • 7. Excess dye was removed by washing with 1% acetic acid (3 times, 0.3 ml per wash; MRD8 robot) and allowed to dry. • 8. The dye was solubilized in Tris base (Sigma; 10 mM, 150 μl per well). Plates were kept at room temperature for 30 minutes to allow the dye to diffuse. • 9. Absorbance was measured at 540 nm. • 10. The percentage of cells surviving drug treatment relative to control wells (no drug) was determined. • 11. The difference in % cell survival between the two cell lines was calculated. • 12. Compounds producing a difference score of >50 were considered to be selective for the p21-deficient cells and were evaluated further: Determination of selectivity of compounds for p21−/− cells: • 1. 80S14 cells were cultured as described above. • 2. Cells were seeded in 96-well microtiter plates at 12,000 cells/well (either 0.15 ml/well of 8×10^4 cells/ml suspension, or 0.2 ml/well of 6×10^4 cells/ml suspension). Plates were incubated at 37° C. overnight (18-24 hours). • 3. Serial dilutions of the test agent were added to each well. Dilutions were prepared either in 40% DMSO/20% methanol/20 mM HEPES, pH 7.5 (Gibco) or directly in growth medium. One of two dose ranges were used: 5 pM to 50 μM or 170 pg/ml to 10 μg/ml. Cells were incubated with the test compounds for 5 days at 37° C. • 4. Surviving cells were fixed with 50 μl 50% trichloroacetic acid (Sigma; 10% final concentration) for 1 hour at 4° C. • 5. Plates were rinsed extensively in water, and allowed to dry. • 6. Sulforhodamine B (Sigma; 0.4% in 1% acetic acid, 70 μl per well) was added and plates kept at room temperature for 10 minutes. • 7. Excess dye was removed by washing 5 times with 1% acetic acid and plates were allowed to dry. • 8. The dye was solubilized in Tris base (Sigma; 10 mM, 150 μl per well). Plates were placed on a titer plate shaker (Lab Line Instruments) for 5 minutes to allow the dye to diffuse. • 9. Absorbance was measured at 560 nm.
10. The drug concentration that inhibits cell proliferation by 50% relative to untreated controls (IC50) was determined from cytotoxicity curves.
Turning to “1-Methyl-N-{3-[3-(thien-2-ylcarbonyl)pyrazolo[1,5-a]pyrimidin-7-yl]phenyl}piperidine-4-carboxaamide [Example 417]”, the pIC50 was 4.30 to 5.00. Regarding “3-(3,5-Dimethylphenyl)-7-{3-[2-(2-piperidin-1-ylethyl)-2H-tetrazol-5-yl]phenyl}pyrazolo[1,5-a]pyrimidine [Example 500]”, the pIC50 is 5.00 to 6.00. As to “3.5-Dinitro-N-{3-[3-(2-thienylcarbonyl)pyrazolo[1,5-a]pyrimidin-7-yl]phenyl}benzamide [Example 288]”, the pIC50 was 4.30 to 5.00.

The same assay, now with this note: 80S14 p21-deficient cells, 5 days incubation, SRB; read-out: IC50 for 80SI4.
`C[C@H](NC(=O)Nc1cccc(-c2ccnc3c(C(=O)c4cccs4)cnn23)c1)c1ccccc1` [Example 11, N-[(1S)-1-phenylethyl]-N′-{3-[3-(thien-2-ylcarbon1)pyrazolo[1,5-a]pyrimidin-7-yl]phenyl}urea]: the pIC50 was 5.00 to 6.00. `O=C(Nc1cccc(-c2ccnc3c(C(=O)c4cccs4)cnn23)c1)OCC(Cl)(Cl)Cl` [Example 18, 2,2,2-trichlroethyl 3-[3-(thien-2-ylcarbonyl)pyrazolo[1,5-a]pyrimidin-7-yl]phenylcarbamate]: the pIC50 is over 6.00.

The assay is the same for the next values; noted with them: Homo sapiens, 80S14, 120 h, read-out: IC50 for 80SI4 (uM).
For the molecule `CC(C)OC(=O)Nc1cccc(-c2ccnc3c(C(=O)c4cccs4)cnn23)c1` [Example 15, isopropyl 3-[3-(thien-2-ylcarbonyl)pyrazolo[1,5-a]pyrimidin-7-yl]phenylcarbamate], the IC50 is under 1 µM. Same read-out and setting: with `CC(C)COC(=O)Nc1cccc(-c2ccnc3c(C(=O)c4cccs4)cnn23)c1` [Example 16, isobutyl 3-[3-(thien-2-ylcarbonyl)pyrazolo[1,5-a]pyrimidin-7-yl]phenylcarbamate] the figure was under 1 µM.

Still in this assay, the particulars now being: Homo sapiens, 120 h; 80S14 p21-deficient cells, 5 days incubation, SRB; read-out: IC50 for 80SI4.
`O=C(Nc1ccccc1)Nc1cccc(-c2ccnc3c(C(=O)c4cccs4)cnn23)c1` [Example 1, N-phenyl-N′-{3-[3-(thien-2-ylcarbonyl)pyrazolo[1,5-a]pyrimidin-7-yl]phenyl}urea]: the pIC50 was over 6.00. The same measure, in the same setting: the value for `COC(=O)[C@@H](NC(=O)Nc1cccc(-c2ccnc3c(C(=O)c4cccs4)cnn23)c1)C(C)C` [Example 4, methyl N-[({3-[3-(thien-2-ylcarbonyl)pyrazolo[1,5-a]pyrimidin-7-yl]phenyl}amino)carbonyl]-L-valinate] was over 6.00.

`CCNC(=O)Nc1cccc(-c2ccnc3c(C(=O)c4cccs4)cnn23)c1` [Example 5, N-ethyl-N′-{3-[3-(thien-2-ylcarbonyl)pyrazolo[1,5-a]pyrimidin-7-yl]phenyl}urea]: the pIC50 was over 6.00. Turning to `CC(C)NC(=O)Nc1cccc(-c2ccnc3c(C(=O)c4cccs4)cnn23)c1` [Example 6, N-isopropyl-N′-{3-[3-(thien-2-ylcarbonyl)pyrazolo[1,5-a]pyrimidin-7-yl]phenyl}urea], the pIC50 is over 6.00.

Turning to `C=CCNC(=O)Nc1cccc(-c2ccnc3c(C(=O)c4cccs4)cnn23)c1` [Example 7, N-allyl-N′-{3-[3-(thien-2-ylcarbonyl)pyrazolo[1,5-a]pyrimidin-7-yl]phenyl}urea], the pIC50 is over 6.00.

Turning to `O=C(NC(=O)C(Cl)(Cl)Cl)Nc1cccc(-c2ccnc3c(C(=O)c4cccs4)cnn23)c1` [Example 9, N-{3-[3-(thien-2-ylcarbonyl)pyrazolo[1,5-a]pyrimidin-7-yl]phenyl}-N′-(trichloroacetyl)urea], the pIC50 is 5.00 to 6.00. The same measure, in the same setting: with `CCOC(=O)CNC(=O)Nc1cccc(-c2ccnc3c(C(=O)c4cccs4)cnn23)c1` [Example 10, ethyl N-[({3-[3-(thien-2-ylcarbonyl)pyrazolo[1,5-a]pyrimidin-7-yl]phenyl}amino)carbonyl]glycinate] the figure was 4.30 to 5.00. The same measure, in the same setting: with `O=C(Nc1cccc(-c2ccnc3c(C(=O)c4cccs4)cnn23)c1)N[C@H]1C[C@@H]1c1ccccc1` [Example 12, N-[(1S,2R)-2-phenylcyclopropyl]-N′-{3-[3-(thien-2-ylcarbonyl)pyrazolo[1,5-a]pyrimidin-7-yl]phenyl}urea] the figure was over 6.00.
